In assay [1] the target is T1, hOCT2 (Homo sapiens, UniProt O15244).
T1 sequence (O15244 1-555): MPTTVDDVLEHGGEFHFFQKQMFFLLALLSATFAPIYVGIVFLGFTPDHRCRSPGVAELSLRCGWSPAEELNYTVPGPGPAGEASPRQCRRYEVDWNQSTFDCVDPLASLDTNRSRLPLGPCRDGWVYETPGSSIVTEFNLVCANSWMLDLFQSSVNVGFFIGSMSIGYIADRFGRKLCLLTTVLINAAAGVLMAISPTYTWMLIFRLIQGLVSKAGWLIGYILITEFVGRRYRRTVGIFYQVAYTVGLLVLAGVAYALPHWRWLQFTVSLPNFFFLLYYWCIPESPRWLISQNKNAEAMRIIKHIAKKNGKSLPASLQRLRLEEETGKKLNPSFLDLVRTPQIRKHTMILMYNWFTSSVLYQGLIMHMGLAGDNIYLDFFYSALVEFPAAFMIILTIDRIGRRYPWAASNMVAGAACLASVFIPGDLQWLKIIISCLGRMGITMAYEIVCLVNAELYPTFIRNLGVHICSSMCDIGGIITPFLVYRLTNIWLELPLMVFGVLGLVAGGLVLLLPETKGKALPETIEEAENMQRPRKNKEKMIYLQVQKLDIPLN
Description: ASP+ uptake (saturation and inhibition) in hOCT2-HEK cells. The format is cell-based. Further details: expressed in transfected cells; host or cells: HEK293, stably transfected; gift of Prof; Koepsell (University of Würzburg).

For assay [2], the target named is T1, hOCT2. Nature of the assay: ASP+ uptake (saturation and inhibition) in hOCT2-MDCK cysts. The assay is classed as cell-based. Set-up: The full-length hOCT2 tagged at the carboxy-terminus with GFP (hOCT2-GFP); expressed in transfected cells; host or cells: MDCK II cells (ECACC 00062107), retroviral transduction with pQCXIH, grown as cysts in BME2.
Assay [3] deals with T1, hOCT2. Description: Acute regulation of ASP+ uptake and ASP+ transport kinetics in hOCT2-MDCK cysts (10 min incubation with kinase/calmodulin inhibitors). The format is cell-based. Further details: The full-length hOCT2 tagged at the carboxy-terminus with GFP (hOCT2-GFP); expressed in transfected cells; host or cells: MDCK II cells (ECACC 00062107), retroviral transduction with pQCXIH, grown as cysts in BME2. The conditions noted are these: for Acute regulation of initial ASP+ uptake after 10 min incubation: 4 µM ASP+, calmidazolium 5 µM, aminogenistein 10 µM, TBBz 10 µM. Here is the method:
(§1) The organic cation ASP^+ was used as a fluorescent substrate of hOCT2 [54]. […] To evaluate hOCT2 function, cellular fluorescence was measured before and after ASP^+ addition in the hOCT2-HEK cells and hOCT2-MDCK and EV-MDCK cysts. Transport measurements were performed at T = 37 °C. […] The effects of the CKII regulation pathway on the kinetic parameters of ASP^+ uptake in hOCT2- MDCK-3D were investigated, comparing the saturation curves in the presence or absence of the regulator.

Assay [4] has as its system hOCT2. Description: Acute regulation of ASP+ uptake in hOCT2-HEK cells (10 min incubation with kinase/calmodulin inhibitors). The format is cell-based, human. Conditions: 1 µM ASP+, calmidazolium 5 µM, aminogenistein 10 µM, TBBz 10 µM. As to the method:
as §1

In the next assay the test system is endogenous canine OCT2. Description: ASP+ uptake in EV-MDCK cysts (empty vector). The format is cell-based. Conditions: EV-MDCK cysts (GFP alone); 1 mM TPA+. Here is the method:
Upon the addition of 4 µM ASP^+, an increase in cellular fluorescence was observed over time. This fluorescence increase was much higher in the hOCT2-MDCK than the EV-MDCK cysts. […] The slope of the linear range of the ASP^+ uptake increase measured in the first 2 min after ASP^+ addition (arbitrary fluorescence units/[…]) was used as the measurement of the transporter function.
The organic cation ASP^+ was used as a fluorescent substrate of hOCT2 [54]. […] To evaluate hOCT2 function, cellular fluorescence was measured before and after ASP^+ addition in the hOCT2-HEK cells and hOCT2-MDCK and EV-MDCK cysts. Transport measurements were performed at T = 37 °C.

The mark [5] stands for this setting: hOCT2-HEK cells, 1 µM ASP+, 37 °C.
Where [6] appears, read: hOCT2-HEK cells, 1 µM ASP+, 37 °C, read-out: IC50 for the inhibition of ASP+ uptake.
The mark [7] stands for this setting: hOCT2-MDCK cysts, 4 µM ASP+, 37 °C.
Where [8] appears, read: hOCT2-MDCK cysts, 4 µM ASP+, 37 °C, read-out: IC50 for the inhibition of ASP+ uptake.

Where “and” joins values, the source holds several entries; their conditions need not be identical. Equal entries are not always repeated. Entries after “also recorded” stand apart in the source; their conditions may differ.

In the case of `CN(C)c1ccc(C=Cc2cc[n+](C)cc2)cc1` [ASP^+, 4-(4-(dimethylamino)styryl)-N-methylpyridinium], the Km was 3.1 ± 0.2 µM at hOCT2 [1] (hOCT2-HEK cells, 0-20 µM ASP+, uptake in presence of 1 mM TPA+ subtracted, 37 °C, read-out: Km ± SEM of specific ASP+ uptake); 3.6 ± 1.2 µM at hOCT2 [2] (hOCT2-MDCK cysts, 0-20 µM ASP+, uptake in presence of 1 mM TPA+ subtracted, 37 °C, read-out: Km ± SEM of specific ASP+ uptake); 2.6 ± 0.2 µM on hOCT2 [3] (10 min preincubation with control solution, read-out: Km of ASP+ transport, control (-TBBz)). Besides, the “Vmax of ASP+ transport, control (-TBBz)” value on hOCT2 [3] (10 min preincubation with control solution) is reported as 6.1 ± 0.1 a.u./s^2.

`CCS(=O)(=O)N1CC(CC#N)(n2cc(-c3ncnc4[nH]ccc34)cn2)C1` [Baricitinib, baricitinib]: the “logIC50 ± SEM for the inhibition of ASP+ uptake” value (“logIC50 ± SEM for the inhibition” for short) was −6.00 ± 0.06 on hOCT2 [1] (setting [5]); −6.0 ± 0.1 on hOCT2 [1] (hOCT2-HEK cells, 1 µM ASP+, 37 °C, listed as baricitinib); −4.81 ± 0.06 on hOCT2 [2] (setting [7]); −4.8 ± 0.1 on hOCT2 [2] (hOCT2-MDCK cysts, 4 µM ASP+, 37 °C, listed as baricitinib). The half-inhibitory concentration (IC50) at hOCT2 [1] (setting [6]) worked out at 1.1 µM; on hOCT2 [2] (setting [8]) it was 15.4 µM.

As to `CN(C)C(=N)N=C(N)N` [Metformin, metformin], the “logIC50 ± SEM for the inhibition” value at hOCT2 [1] (setting [5]) was −3.10 ± 0.11; at hOCT2 [1] (hOCT2-HEK cells, 1 µM ASP+, 37 °C, listed as metformin) it was −3.1 ± 0.1; at hOCT2 [2] (setting [7]), −3.05 ± 0.09; on hOCT2 [2] (hOCT2-MDCK cysts, 4 µM ASP+, 37 °C, listed as metformin), −3.1 ± 0.1. The values for the IC50 on hOCT2 [1] (setting [6]) and at hOCT2 [2] (setting [8]) were 804 µM and 884 µM, respectively.

`Brc1c(Br)c(Br)c2[nH]cnc2c1Br` [TBBz, 4,5,6,7-tetrabromobenzimidazole]: the “Acute regulation of initial ASP+ uptake after 10 min incubation” value (shortened to “Acute regulation of initial ASP+ uptake”) at hOCT2 [3] was “rapid decrease in ASP^+ uptake only in the hOCT2-MDCK cysts”; in the assay on hOCT2 [4], “only in the hOCT2-MDCK cysts”. The “Vmax of ASP+ transport under CKII inhibition (+TBBz)” value at hOCT2 [3] (10 min preincubation with 10 µM TBBz) came out at 3.9 ± 0.8 a.u./s^2.

Regarding `CC[N+](CC)(CC)CC` [TEA^+, tetraethylammonium], the “logIC50 ± SEM for the inhibition” value at hOCT2 [1] (setting [5]) is −5.1 ± 0.1 and −5.12 ± 0.08; on hOCT2 [2] (setting [7]), −4.7 ± 0.1 and −4.67 ± 0.11. The IC50 on hOCT2 [1] (setting [6]) stood at 7.6 µM; on hOCT2 [2] (setting [8]), 21.3 µM.

Take `CCCCC[N+](CCCCC)(CCCCC)CCCCC` [TPA^+, tetrapentylammonium]: the IC50 on hOCT2 [1] came out at 1.4 µM; against hOCT2 [2], 0.9 µM. Also, the “logIC50 ± SEM for the inhibition” value on hOCT2 [1] (setting [5]) is −5.9 ± 0.2 and −5.85 ± 0.11; at hOCT2 [2] (setting [7]), −6.1 ± 0.1 and −6.04 ± 0.05. Besides, the “Inhibition of uptake of 4 µM ASP+ by 1 mM competitor” value is “significantly inhibited” in the assay with endogenous canine OCT2 and “almost completely inhibited; also recorded: completely suppressed” on hOCT2 [2] (hOCT2-MDCK cysts, 1 mM TPA+ in uptake buffer).

As for `Nc1ccc(-c2cc(=O)c3cc(O)ccc3o2)cc1` [aminogenistein], the “Acute regulation of initial ASP+ uptake” value on hOCT2 [3] and in the assay with hOCT2 [4] was “rapid decrease in ASP^+ uptake” each time.

Turning to `Clc1ccc(C(c2ccc(Cl)cc2)n2cc[n+](CC(OCc3ccc(Cl)cc3Cl)c3ccc(Cl)cc3Cl)c2)cc1` (stereo not drawn) [calmidazolium], the “Acute regulation of initial ASP+ uptake” value on hOCT2 [3] and in the assay with hOCT2 [4] was “rapid decrease in ASP^+ uptake” in each case.

For the origin of these results see paper PMC8432172, “Properties of Transport Mediated by the Human Organic Cation Transporter 2 Studied in a Polarized Three-Dimensional Epithelial Cell Culture Model” (International Journal of Molecular Sciences, 2021).
